Laboratory results: patent US10059742B2, “Peptides and methods and uses thereof for preventing retinal disorders” (priority 2012, dated 2018)
Ends that are not written are not given here.

What was measured:
[1] = test system: axotomized retinal ganglion cells (RGCs); assay: Optic nerve transection (axotomy): RGC survival at 14 days; format: in vivo, rat
Description: Optic nerve transection was performed as previously described (Koeberle and Ball 1998; Koeberle and Bahr 2008; Koeberle, Wang et al. 2010; Magharious, D'Onofrio et al. 2011; Magharious, D'Onofrio et al. 2011; Monnier, D'Onofrio et al. 2011). Animals were placed in a stereotaxic frame and anesthetized with Isoflurane (2%; 0.8 L/min oxygen flow rate) delivered through a gas anesthesia mask. Lidocaine eye drops were used to anesthetize the cornea and ophthalmic eye ointment was applied to the cornea to prevent desiccation during surgery. […] In order to allow access to the optic nerve and surrounding dura mater sheath, the eye was rotated laterally by applying traction to the extraocular muscles. The dural sheath surrounding the optic nerve was cut longitudinally, to avoid damaging blood vessels supplying the retina. The optic nerve was gently lifted from the meningeal sheath and transected within 2 mm of the back of the eye. In order to retrogradely label RGCs, gelfoam soaked in 2% Fluorogold (Sigma) was placed over the transected optic nerve stump. The orbital contents were returned to their original location and the initial incision was closed. The optic nerve crush procedure was performed using a similar approach; however, the optic nerve was crushed using fine self-closing forceps for 6 seconds as previously described (Magharious, D'Onofrio et al. 2011; Monnier, D'Onofrio et al. 2011). The orbital contents were then similarly returned to their original location and the initial incision was closed. Following surgery, rats were placed in a recovery cage under a heat lamp and given Ketoprofen to ease post-surgical recovery.
The procedures for intraocular and optic nerve injections have been previously described (Koeberle and Ball 1998; Koeberle and Bahr 2008; Koeberle, Wang et al. 2010; Magharious, D'Onofrio et al. 2011; Magharious, D'Onofrio et al. 2011; Monnier, D'Onofrio et al. 2011). Animals received intraocular injections of each peptide at 3 and 8 days postaxotomy, prior to the onset of RGC apoptosis which occurs at 4-5 days after axotomy. Animals were placed in a stereotaxic frame and anesthetized with isoflurane, delivered through a gas anesthetic mask. The cornea was anesthetized using Alcaine eye drops (Alcon) prior to intraocular injections. A pulled glass micropipette attached to a 10 μl Hamilton syringe via a hydraulic coupling through PEEK tubing was used to deliver 4 μl of a peptide solution (10 mg/ml) into the vitreous chamber of the eye, posterior to the limbus. Care was taken to prevent damage to the lens or anterior structures of the eye. The pipette was held in place for 5 seconds after injection and slowly withdrawn from the eye to prevent reflux. Injections were performed using a surgical microscope in order to visualize pipette entry into the vitreous chamber and confirm delivery of the injected solution.
To directly target RGCs, peptide solutions were injected into the transected optic nerve stump using a 10 microliter Hamilton syringe. A total of 5 microliters of peptide suspension (10 mg/ml) were injected. The majority of the injected fluid will reflux out of the optic nerve during this procedure, so the remaining pool of peptide suspension is left in place when returning the orbital contents to their original positions.
For intraperitoneal injections, 1 ml of saline containing 0.5 mg of dissolved peptide was delivered via a 25 gauge needle attached to a 5 ml syringe, following rapid anesthesia with isoflurane to incapacitate the animal.
For eye drop application of C-terminal peptides, animals were sedated with isoflurane and placed in a stereotaxic frame, in order to reduce the blink reflex. Twenty-five microliters of a peptide suspension (1 mg/ml) was delivered to the surface of the cornea using a micropipetter with a sterile micropipette tip. Eye drops were delivered once per day, on day 1, 2, 3, 4, 5, 6, and day 7 after axotomy. […]

[2] = test system: middle cerebral artery occlusion (MCAO) in adult rats; assay: Thromboembolic middle cerebral artery occlusion (MCAO): brain infarct volume (TTC staining); format: in vivo, rat; conditions: Arginine 9-mer-conjugated peptides; intravenous (tail-vein) 1 mg/kg; 48 hours after MCAO; relative to control
Description: (§1) In order to examine the effects of the peptide therapeutics described herein, a thromboembolic model of middle cerebral artery occlusion that closely mimics human ischemic brain stroke was used: a clotted segment of blood is injected into the origin of the middle cerebral artery to block blood flow in the corresponding vascular territory of the lateral cerebrum (Wang, Yang et al. 2001).
(§2) Following deep isoflurane anesthesia via a nose-cone, fur was shaved from the ventral aspect of the neck. The shaved skin was cleaned twice with alternating applications of Proviodine (iodine detergent solution) and 70% ethanol. Following a final application of Proviodine, the surgical field was draped and a midline incision made in the ventral skin and fascia of the neck. Under an operating microscope, the right common carotid artery (CCA), the right external carotid artery […], and the right internal carotid artery […] were carefully isolated and separated from the adjacent vagus nerve. A 6-0 silk suture was loosely tied at the origin of the ECA, and another suture was used to ligate the ECA distally. A sterile modified PE 10 catheter was introduced into the lumen of the right ECA via a small puncture. Ten microliters of blood was withdrawn into the catheter and retained for 15 minutes to allow formation of a clot. The fresh autologous pre-formed clot was used for MCA occlusion. The right CCA and the right ICA were temporarily clamped using microvascular clips. The PE 50 catheter containing a 20 mm long fibrin rich clot was attached to 100 μl Hamilton syringe and introduced into the lumen of the external carotid artery via a small incision. The suture around the origin of the external carotid artery was tightened around the intraluminal catheter to prevent bleeding, and the microvascular clip on the internal carotid artery was removed. The catheter was gently advanced from the ECA into the lumen of the ICA and upwards to the origin of the middle cerebral artery (a total of 17 mm in distance from the bifurcation of the CCA). At this point, the end of the catheter is 1-2 mm away from the origin of the middle cerebral artery. Over 10 seconds, the clot (3.5 μl volume) was gently injected together with 5 μl of sterile saline within the catheter. The catheter was removed 5 minutes after injection, and the right ECA was ligated at its origin. […]
(§3) 48 hours after MCA occlusion isoflurane anesthetized rats were euthanized by decapitation. […] Infarct volumes were calculated from scanned images of the coronal surfaces of brain slices, using the following formula: Infarct volume=(volume of uninjured hemisphere−(volume of injured hemisphere−measured infarct volume))/volume of uninjured hemisphere)×100. […]

[3] = test system: middle cerebral artery occlusion (MCAO) in adult rats; assay: MCAO: neurological deficits (modified Bederson scoring system); format: in vivo, rat; conditions: Arginine 9-mer-conjugated peptides; intravenous 1 mg/kg; scored 8, 24 and 48 hours after MCAO; relative to control
Description: as §1
as §2, with “origin. Body temperature was maintained at 37° C. with a heating pad for the duration of surgery, after which the surgical field was closed with 4-0 silk sutures. Subcutaneous injections of Buprenorphine (0.05 mg/kg) were administered to minimize post-surgical discomfort.” for “origin.”
Neurological deficits were recorded at 8, 24 and 48 hours after ischemic injury. Neurological deficits were determined using a modified Bederson scoring system. […]

[4] = test system: retinal ganglion cells (RGCs); assay: Retinal ischemia (ophthalmic artery ligation): RGC survival at 14 days; format: in vivo, rat; conditions: ophthalmic vessels ligated 45 minutes; intravenous 500 μg at 1 day and 8 days after injury; 14 days after stroke
Description: The approach for temporary retinal ischemia (ophthalmic artery ligation) was similar with a few exceptions. this procedure has been previously described (Tatton, Chalmers-Redman et al. 2001). Since the optic nerve was not damaged in this procedure, RGCs had to be retrogradely labeled prior to ischemia. […] Injections were performed under gas anesthetic in a stereotaxic apparatus. […] Injections were carried out using a 10 μl Hamilton syringe actuated by a computer controlled Picopump (World Precision Instruments). […] The needle was left in place for 10 min after each injection and slowly withdrawn to prevent reflux of the injected solutions up the needle tract. The surgical approach to the optic nerve was identical to that described for optic nerve transection. After a longitudinal cut was made in the meningeal sheath surrounding the optic nerve, the nerve was gently lifted out of the sheath. The meningeal sheath including the ophthalmic artery was then clamped using a calibrated micro-vessel clamp for 45 minutes, after which the clamp was removed to permit vascular reperfusion. […]
Eyes were enucleated, the cornea and lens were removed and the remaining eye cups containing the retinas were fixed in 4% paraformaldehyde at 14 days postaxotomy. […] RGC densities were grouped by retinal eccentricity (inner, middle, outer), and expressed as mean±SEM. […]

[5] = test system: cultured post-natal cortical neurons; assay: Cortical neuron survival after glutamate (crystal violet assay); format: cell-based, rat; conditions: 5 mM glutamate, 24 hours; increasing volumes of 10 mg/ml peptide stock; relative to control
Description: Cortical neuron cultures were made from newborn (P5) rat pups. Cortical samples were triturated 30× using a P1000 pipettor in cold Dubelcco's PBS+glucose. Neurons were plated in 24 well plates coated with poly-d-lysine. 100,000 cells/well were plated in cold Neurobasal A medium+glutamax+penicillin/streptomycin. Cultures were placed in an incubator (37 Celsius, 5% CO2) for 7 days, with half the media changed after 3 days.
After 7 days in culture, the media was replaced with fresh media containing 5 mM glutamate. Experimental samples received various amounts of each peptide, whereas controls received an equivalent volume of PBS (vehicle). After 24 hours, cell survival was quantified using the crystal violet assay: Media was removed from the cells and 200 microliters of 0.2% crystal violet (dissolved in 20% methanol:80% H2O) was added to each well. After 5 minutes, wells were rinsed with distilled water and the plates were dried. Crystal violet was eluted from the cells using 0.1 M sodium citrate in 50% ethanol. 100 microliter samples from each well were then transferred to 96 well plates and absorbance was read at 540 nm. Results were expressed as the relative fold-change in comparison to the control samples that received buffer.

[6] = test system: middle cerebral artery occlusion (MCAO) in adult rats; assay: MCAO: brain edema of the injured hemisphere; format: in vivo, rat; conditions: Arginine 9-mer-conjugated peptides; intravenous 1 mg/kg; 48 hours after MCAO; relative to control
Description: as §1
Following deep isoflurane anesthesia via a nose-cone, fur was shaved from the ventral aspect of the neck. The shaved skin was cleaned twice with alternating applications of Proviodine (iodine detergent solution) and 70% ethanol. Following a final application of Proviodine, the surgical field was draped and a midline incision made in the ventral skin and fascia of the neck. Under an operating microscope, the right common carotid artery (CCA), the right external carotid artery […], and the right internal carotid artery […] were carefully isolated and separated from the adjacent vagus nerve. […]
as §3

[7] = Arginine 9-mer (R9)-conjugated peptides, eye drops (1 mg/ml, 25 microliters) once per day, days 1-7 after axotomy, 14 days after axotomy
[8] = 14 days postaxotomy, TAT-conjugated peptide, intraocular injection 10 mg/ml at 3 and 8 days

hPTEN: R9-conjugated human PTEN phosphatase C-terminal peptide DQHTQITKV (SEQ ID NO:9)
RGC survival relative to control [1, 7]: significantly enhanced RGC survival | brain infarct volume [2]: significantly reduced | neurological deficits (Bederson score) [3]: significantly reduced neurological deficits

PTEN: R9 (RRRRRRRRR)-conjugated rat PTEN phosphatase C-terminal peptide DQHSQITKV (SEQ ID NO:1) (RRRRRRRRRDQHSQITKV)
RGC survival relative to control [1, 7]: significantly enhanced RGC survival | brain infarct volume [2]: significantly reduced | neurological deficits (Bederson score) [3]: significantly reduced neurological deficits

TAT-Kv2.1: TAT domain conjugated to Kv2.1 voltage-gated potassium channel C-terminal peptide HGSTRDQSI (SEQ ID NO:2) (also: TAT conjugated, site not given here; listed as Homo sapiens)
increase in RGC survival compared to controls [1, 8]: 3 fold | RGC density as share of the normal density of 2500 cells/mm^2 ([1]; 14 days postaxotomy, TAT-conjugated peptide, nerve injection 10 mg/ml): ~80% | increase in RGC survival compared to controls ([1]; 14 days postaxotomy, TAT-conjugated peptide, single nerve injection 10 mg/ml at time of axotomy): 5 fold | RGC survival after ischemic (stroke) injury [4]: significantly enhanced RGC survival | cortical neuron survival [5]: dose-dependent survival-promoting effect

Kv2.1: R9-conjugated Kv2.1 C-terminal peptide HGSTRDQSI (SEQ ID NO:2) (also: R9 conjugated, site not given here; listed as Homo sapiens)
RGC survival relative to control [1, 7]: significantly enhanced RGC survival | brain infarct volume [2]: significantly reduced | neurological deficits (Bederson score) [3]: significantly reduced neurological deficits | brain edema (swelling) [6]: significantly reduced brain edema

iNOS: R9-conjugated iNOS C-terminal peptide LEEPKGTRL (SEQ ID NO:8), MCAO tests (also: R9 conjugated, site not given here; listed as Homo sapiens)
increase in RGC survival compared to controls [1, 8]: 2 fold | RGC survival relative to control ([1]; 14 days postaxotomy, TAT-conjugated peptide, intraperitoneal (IP) injections, 500 μg per injection): little or no effect | RGC survival relative to control ([1]; 14 days postaxotomy, TAT-conjugated peptide, nerve injection): little or no effect | brain infarct volume [2]: significantly reduced | neurological deficits (Bederson score) [3]: significantly reduced neurological deficits | brain edema (swelling) [6]: significantly reduced brain edema
